One assay has as its system CtCGT. Nature of the assay: HPLC C-glycosylation assay, Michaelis-Menten fit. In kind it is biochemical, Carthamus tinctorius. The settings on record: read-out: apparent Km; saturated UDP-Glc as sugar donor.
Assay [1] addresses Ct2OGD1 (2-oxoglutarate-dependent dioxygenase), purified recombinant, NHS-labelled (Carthamus tinctorius). Nature of the assay: MST.

What is called Km is the concentration of substrate that gives half-maximal velocity. Usually Kd stands for the equilibrium constant for the complex coming apart.

As to `O=C(CCc1ccc(O)cc1)c1c(O)cc(O)cc1O` [compound 1, phloretin], the Km with CtCGT worked out at 1.86 µM.

For “CtCGT (flavonoid di-C-glycosyltransferase, UGT708U8), purified recombinant (enzyme)”, the Kd in assay [1] stood at 541 nM. Turning to `O=C(CCc1ccc(O)cc1)c1c(O)cc(O)c([C@@H]2O[C@H](CO)[C@@H](O)[C@H](O)[C@H]2O)c1O` [1a, nothofagin], the Km in the assay with CtCGT stood at 284 µM.

For the origin of these results see paper PMC12078564 (Nature Communications, 2025).
